Like-named read-outs stand apart in the source and are kept apart here.
What was measured:
[1] = test system: rats with middle cerebral artery occlusion (MCAO); assay: Hindlimb placing test, MCAO rats, dose escalation study (Example 17); format: in vivo, Sprague Dawley rat
Description: Limb Placing: Evaluated at Day −1 (pre-operation), Day 1, Day 7, Day 14, Day 21, Day 28, Day 30, Day 32, Day 42, Day 44, Day 46, Day 56, Day 58, Day 60. The limb placing tests were divided into forelimb and hindlimb tests. For the forelimb-placing test, the examiner held the rat close to a tabletop and scored the rat's ability to place the forelimb on the tabletop in response to whisker, visual, tactile, or proprioceptive stimulation. Similarly, for the hindlimb placing test, the examiner assessed the rat's ability to place the hindlimb on the tabletop in response to tactile and proprioceptive stimulation. Together, these tests reflect function and recovery in the sensorimotor systems (De Ryck et al., Brain Res 1992; 573:44-60). Separate sub-scores were obtained for each mode of sensory input and added to give total scores (for the forelimb placing test: 0=normal, 12=maximally impaired; for the hindlimb placing test: 0=normal; 6=maximally impaired). Scores were given in half-point increments (see below). Typically, there is a slow and steady recovery of limb placing behavior during the first month after stroke.
Hindlimb placing test (0-6): • tactile placing (dorsal (0-2), lateral (0-2)) • proprioceptive placing (0-2).
For each subtest, animals are scored as followed: • 0.0=immediate response • 0.5=response within 2 seconds • 1.0=response of 2-3 seconds • 1.5=response of >3 seconds • 2.0=no response
4-AP was evaluated for its ability to promote functional sensorimotor improvement following ischemic stroke in rats with stable motor deficits at times remote from their ischemic events. The animal model of ischemic stroke, i.e., the MCAO model, used in this example is the same as the animal model described in Example 2.
In the MCAO model recovery begins to plateau by 4 weeks after MCAO, at which time there are still measurable deficits in sensorimotor function. However, 4 weeks after MCAO there may still be slow continued endogenous recovery.
4-aminopyridine was dissolved in water for injection (WFI, Cellgro) and sterile filtered. Solutions of 0.25 mg/mL, 0.5 mg/mL and 1.0 mg/mL of 4-aminopyridine were delivered by gastric gavage at 2 mL/kg for final doses of 0.5 mg/kg, 1 mg/kg or 2.0 mg/kg respectively. Vehicle control treatment was WFI delivered at 2 mL/kg by gastric gavage. Starting on Day 56 after MCAO, animals received gastric gavage of solutions (2 mL/kg) approximately 12 hours apart. The vehicle control group was treated with water for all doses on Days 56-65. For the treated group, six doses of 4-aminopyridine at 0.5 mg/kg were delivered over Days 56-59, followed by six doses at 1.0 mg/kg over Days 59-62 and six doses at 2.0 mg/kg over Days 62-65. Animals in all groups were not treated during Days 66-70. p.o.=par oral. […]

potassium channels = conditions: cited from earlier work

Nc1ccncc1 [4-aminopyridine]
Hind limb placing score compared to vehicle ([1]; 0.5 mg/kg b.i.d. p.o., Day 59): improved with the low dose but did not reach significance | Hind limb placing compared to vehicle ([1]; 1 mg/kg b.i.d. p.o., Day 62, p<0.05): measureable improvement | Hind limb function compared to vehicle ([1]; 2 mg/kg b.i.d. p.o., Day 65, p<0.001): significant improvements | Hind limb score after treatment withdrawn for 5 days ([1]; Day 70, p<0.05): remained greater than the vehicle treated group | potassium channel blocking activity (potassium channels; at high concentration (millimolar concentrations)): broad-spectrum blocker of potassium channels | potassium channel blocking activity (potassium channels; at plasma concentrations obtained in clinical studies (<1 microM)): selective for certain types of these channels

Source: patent publication US20160067232A1, “METHODS FOR TREATING A STROKE-RELATED SENSORIMOTOR IMPAIRMENT USING AMINOPYRIDINES” (Acorda Therapeutics, Inc., priority 2011, published 2016)
